Data taken from publication PMC6588349 (eLife, 2019).
Where two headings read alike, the source gives them in different places.

Tests used:
[1] = target: T1, SNAP-mGluR2-R57A (Rattus norvegicus, UniProt P31421, R57A); assay: GIRK activation assay, whole cell patch clamp, SNAP-mGluR2-R57A; type: cell-based
T1 construct: expressed in transfected cells; host or cells: HEK 293T
Method: (§1) Cells were cultured in DMEM with 5% FBS on poly-L-lysine-coated glass coverslips. DNA plasmids were transfected into cells using Lipofectamine 3000 (Thermo Fisher). […] For single-molecule pulldown (SiMPull) experiments, cells were transfected with 0.7 μg DNA of HA and SNAP-tagged receptor constructs, unless otherwise noted. For FRET experiments, cells were transfected with either SNAP-tagged constructs at 0.5–0.7 μg of DNA/well or SNAP and CLIP-tagged constructs at a ratio of 1:2 with 0.3 μg of SNAP DNA/well.
(§2) Whole-cell patch clamp recordings from single isolated cells were performed 24–36 hr after transfection in a high-potassium extracellular solution containing (in mM): 120 KCl, 29 NaCl, 1 MgCl2, 2 CaCl2 and 10 HEPES, pH 7.4. Cells were voltage clamped to −60 mV using an Axopatch 200B amplifier (Axon Instruments) and membrane currents were recorded. Glass pipettes of resistance between 3 and 8 MΩ were filled with intracellular solution containing (in mM): 140 KCl, 10 HEPES, 3 Na2ATP, 0.2 Na2GTP, 5 EGTA and 3 MgCl2, pH 7.4. Data were acquired with a 2 kHz acquisition rate and filtered with the amplifier 4-pole Bessel filter at 1 kHz. Drugs were prepared in extracellular solution and applied using a gravity-driven perfusion system. Data were analyzed with Clampfit (Molecular Devices) and Prism (GraphPad). Data for all conditions came from at least two separate transfections.

[2] = system: SNAP-mGluR2-TMD-N735D; assay: Inter-TMD FRET assay, N735D mutant; type: cell-based, Rattus norvegicus; conditions: N735D compared to wild-type receptor
Method: (§3) Fluorophores were diluted in EX solution, which was also used to wash coverslips following labeling and prior to mounting on the microscope. After labeling, cells were mounted on an inverted microscope (Olympus IX73) and imaged with a 60x objective. […] Clusters of cells were analyzed together using ImageJ and FRET was calculated as FRET=(IAcceptor)/(IDonor +IAcceptor) where I is fluorescence intensity. No corrections were made for bleed-through between channels or the contribution of donor-donor or acceptor-acceptor dimers as analysis was limited to relative FRET changes between drug treatments rather than absolute FRET values. […] FRET changes calculated for dose–response curves were normalized to the response to saturating […] applied within the same recording and dose–response curves were obtained from multiple cell clusters and averaged from at least three separate experiments. Dose–response curves were fit using Prism (Graphpad). All drugs were purchased from Tocris, prepared in EX solution, and delivered with a gravity-driven perfusion system. For kinetics measurements a pressurized perfusion system (Automate Scientific) was used to produce a flow rate of 0.5 mL/s. Kinetic analysis was performed in Microsoft Excel. The time between 10% and 90% FRET increase or decrease was determined manually. […]

[3] = target: T2, SNAP-mGluR2-TMD-N735D (Rattus norvegicus, UniProt P31421, N735D); assay: Inter-TMD FRET assay, N735D mutant; type: cell-based; conditions: SNAP-mGluR2-TMD-N735D; normalized to saturating LY48; read-out: inter-TMD FRET increase EC50, N735D
T2 construct: Following SNAP tag, mGluR2 truncatd to position Q558; N at position 735 replaced with D; expressed in transfected cells; host or cells: HEK 293T
T2 sequence (P31421 558-872 N735D): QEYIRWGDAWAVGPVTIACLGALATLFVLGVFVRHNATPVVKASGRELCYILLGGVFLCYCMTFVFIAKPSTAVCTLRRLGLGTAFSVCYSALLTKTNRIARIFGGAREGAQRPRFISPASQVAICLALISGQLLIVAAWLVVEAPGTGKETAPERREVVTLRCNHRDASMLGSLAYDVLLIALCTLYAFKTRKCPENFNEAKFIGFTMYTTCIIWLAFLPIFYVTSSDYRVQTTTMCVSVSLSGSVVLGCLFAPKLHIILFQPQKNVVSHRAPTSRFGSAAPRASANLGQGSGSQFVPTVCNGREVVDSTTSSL
Method: as §3

[4] = target: T3, mGluR2-N735D (Rattus norvegicus, UniProt P31421, N735D); assay: GIRK activation assay, whole cell patch clamp, mGluR2-N735D; type: cell-based; conditions: relative to wild-type / saturating glutamate
T3 construct: expressed in transfected cells; host or cells: HEK 293T
T3 sequence (P31421 19-872 N735D): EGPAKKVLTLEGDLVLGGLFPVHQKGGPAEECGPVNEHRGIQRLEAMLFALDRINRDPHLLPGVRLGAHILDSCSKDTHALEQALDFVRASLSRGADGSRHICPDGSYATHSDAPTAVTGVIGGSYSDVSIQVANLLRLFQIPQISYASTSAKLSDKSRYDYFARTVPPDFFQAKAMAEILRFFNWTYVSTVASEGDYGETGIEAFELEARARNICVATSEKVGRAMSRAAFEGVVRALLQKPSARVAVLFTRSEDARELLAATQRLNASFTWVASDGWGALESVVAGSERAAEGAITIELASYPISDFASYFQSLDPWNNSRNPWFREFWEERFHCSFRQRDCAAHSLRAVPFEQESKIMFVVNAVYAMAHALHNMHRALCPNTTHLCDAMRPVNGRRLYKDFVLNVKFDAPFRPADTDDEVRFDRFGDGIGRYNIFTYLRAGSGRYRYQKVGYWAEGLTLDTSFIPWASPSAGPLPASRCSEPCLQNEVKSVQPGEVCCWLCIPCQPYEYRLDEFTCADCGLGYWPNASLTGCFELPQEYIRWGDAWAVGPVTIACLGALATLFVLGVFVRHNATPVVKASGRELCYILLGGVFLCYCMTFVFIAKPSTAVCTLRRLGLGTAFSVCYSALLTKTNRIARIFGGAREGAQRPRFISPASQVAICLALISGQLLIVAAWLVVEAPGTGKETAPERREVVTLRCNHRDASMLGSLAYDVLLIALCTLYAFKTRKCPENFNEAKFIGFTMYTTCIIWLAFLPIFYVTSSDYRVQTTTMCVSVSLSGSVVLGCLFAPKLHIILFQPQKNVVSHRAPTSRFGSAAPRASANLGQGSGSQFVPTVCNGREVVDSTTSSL
Method: as §2

[5] = target: T4, full-length mGluR2 (Rattus norvegicus, UniProt P31421); assay: Calcium imaging assay, HEK cells with full-length mGluR2, GCaMP6f and Gαiq chimera; type: cell-based
T4 construct: HEK 293T cells expressing full-length mGluR2; expressed in transfected cells; host or cells: HEK 293T
T4 sequence (P31421 19-872): as the sequence (P31421 19-872 N735D) above, with D717N counted along it
Method: as §1
Experiments were conducted with continuous gravity-driven perfusion on an inverted microscope (Olympus IX73) and imaged with a 20x objective. […] Regions of interest were selected in Olympus cellSens software and represent single cells or small cell clusters (2–3 cells). Data analysis was performed in Microsoft Excel, where intensities were normalized to the baseline prior to drug application. Dose–response curves were fit using Prism (Graphpad) and data comes from at least two independent experiments for each LY48 concentration.

[6] = target: T5, SNAP-mGluR2 (Rattus norvegicus, UniProt P31421); assay: Single-molecule pulldown (SiMPull) photobleaching step counting, full-length SNAP-mGluR2; conditions: 1 mM glutamate and 10 µM LY48
T5 construct: HEK 293T cells expressing full-length mGluR2; expressed in transfected cells; host or cells: HEK 293T
T5 sequence (P31421 19-872): as the sequence (P31421 19-872 N735D) above, with D717N counted along it
Method: To restrict our analysis to surface-targeted receptors, we expressed N-terminally SNAP-tagged receptor variants and labeled them with membrane-impermeable fluorophores.
To test this, we incubated SNAP-mGluR2-TMD expressing cells and lysates with PAMs or NAMs during the SiMPull experiment.
Briefly, to prevent non-specific sticking of proteins, flow chambers were prepared with mPEG-passivated glass slides and coverslips doped with ~1% biotinylated mPEG, as previously described. Prior to each experiment, chambers were incubated with 0.2 mg/mL NeutrAvidin (ThermoFisher) for 2 min followed by 10 nM of a biotinylated anti-HA antibody (abcam ab26228) for 20–30 min. After each conjugation step, the chambers were washed with T50 buffer (50 mM NaCl, 10 mM Tris, pH 7.5).
After labeling, cells were dissociated from coverslips by incubating with Ca^2+-free PBS for 20 min followed by gentle pipetting. […] Following 1 hr of lysis at 4°C, cells were centrifuged at 16,000 g for 20 min before the supernatant was collected and maintained on ice. The cell lysate was diluted in a 0.1% detergent dilution buffer to obtain sparse immobilization of labeled protein on the passivated slide. […]
Single molecules were imaged with a 100x objective on an inverted microscope (Olympus IX73) in total internal reflection fluorescence (TIRF) mode. […]

T1 sequence (P31421 19-872 R57A): as the sequence (P31421 19-872 N735D) above, with R39A, D717N counted along it

EC50 ([1]; SNAP-mGluR2-R57A, normalized to saturating glutamate, mean ± s.e.m., read-out: GIRK activation EC50): 290 ± 80 nM
EC50 ([1]; mGluR2-R57A, read-out: GIRK activation EC50 (approximate)): ~300 nM
maximal PAM-induced GIRK activation relative to glutamate ([1]; mGluR2-R57A, relative to glutamate): ~ 70%
EC50 [3]: 20500 ± 1400 nM
GIRK activation of mGluR2-N735D [4]: drastically reduced activation
EC50 [5]: 1200 ± 200 nM
two-step bleaching events of SNAP-mGluR2 with glutamate plus LY48 [6]: ~ 60%
SMILES: COc1ccccc1Oc1ccc(N(Cc2cccnc2)S(=O)(=O)CC(F)(F)F)cc1 [LY48]
rightward shift of inter-TMD FRET dose-response curve, N735D versus wild-type [2]: ~ 20 fold
